Reference: publication PMC6492551 (Carbohydrate research, 2019)

Target: CA II (Homo sapiens, UniProt P00918)
Assay: esterase assay, p-nitrophenyl acetate hydrolysis
Assay type: biochemical

IC50 | Compound
> 2000 nM | O=C1NS(=O)(=O)c2cc(-n3cc(CO[C@@H]4O[C@H](CO)[C@@H](O)[C@H](O)[C@H]4O)nn3)ccc21 [1a, saccharin-glycoconjugate 1a]
> 2000 nM | O=C1NS(=O)(=O)c2cc(-n3cc(CO[C@@H]4O[C@H](CO)[C@H](O)[C@H](O)[C@H]4O)nn3)ccc21 [1b, saccharin-glycoconjugate 1b]
> 2000 nM | O=C1NS(=O)(=O)c2cc(-n3cc(CCO[C@@H]4O[C@H](CO)[C@H](O)[C@H](O)[C@H]4O)nn3)ccc21 [1c, saccharin-glycoconjugate 1c]
